For two compounds, MIC results are on record in patent US8575337B2, “Oxazolidinone derivative having fused ring” (Research Foundation Itsuu Laboratory, priority 2008, dated 2013).

A word on the MIC: it is the lowest concentration that inhibits growth of the organism. Read a low MIC as inhibition by little substance.

≈ marks a conversion by molar mass, not a printed value.

What all share (test): MIC determination, CLSI standard method
Format in all cases: cell-based

The test system of one experiment is S. aureus SR3637 (MRSA). The note with it: Staphylococcus aureus, cation-adjusted Mueller Hinton Broth, inoculum about 5×10^5 CFU/mL. On the procedure:
(§1) The compounds of the above Examples were tested for antimicrobial activity.
(§2) Minimal inhibitory concentration (MIC: μg/ml) against different strains of bacteria was determined according to the standard method recommended by CLSI (clinical and laboratory standards institute). The samples used were prepared by dissolving the compound in DMSO at the concentration 1280 μg/mL, followed by a two fold serial dilution with DMSO. The sample was added to a bacteria suspension at the concentration of 5%, and MIC was determined. Cation-adjusted Mueller Hinton Broth was used as a culture media. The inoculation concentration was about 5×10^5 CFU/mL.

The next experiment relates to E. faecium SR7940 (VRE). The conditions noted are these: Enterococcus faecium, cation-adjusted Mueller Hinton Broth, inoculum about 5×10^5 CFU/mL. On the procedure: as §1, §2
The next experiment deals with S. aureus NRS271 (LZD-R). The note with it: Staphylococcus aureus, cation-adjusted Mueller Hinton Broth, inoculum about 5×10^5 CFU/mL. On the procedure: as §1, §2

For `CC(=O)NC[C@H]1CN(c2ccc(N3CCOCC3)c(F)c2)C(=O)O1` [Linezolid, (S)-n-[[3-[3-fluoro-4-(4-morpholinyl)phenyl]-2-oxo-5-oxazolidinyl]methyl]acetamide], the values for the MIC in the experiment with S. aureus SR3637 (MRSA), against E. faecium SR7940 (VRE) and in the experiment with S. aureus NRS271 (LZD-R) were 2 µg/mL (≈ 5.93 µM), 2 µg/mL (≈ 5.93 µM) and 32 µg/mL (≈ 94.9 µM), respectively.
On to `CC(=O)NC[C@H]1CN(c2ccc(-c3ccn4ccnc4c3)c(F)c2)C(=O)O1` [Example 18], for which the MIC against S. aureus SR3637 (MRSA) was 0.25 µg/mL (≈ 0.679 µM); against E. faecium SR7940 (VRE) it was 0.25 µg/mL (≈ 0.679 µM); in the experiment with S. aureus NRS271 (LZD-R), 2 µg/mL (≈ 5.43 µM).
